# “And” between values parts separate entries of the source, which are not always exact repeats. Equal values may be shown once.
# Columns and labels:
# Assay type in all cases: in vivo, human
# [1] = Study 1: open-label 2-way crossover relative bioavailability, tablet vs oral liquid formulation; details: for Tmax / AUC(0-t) / AUC(0-inf) / half-life: human, plasma; for half-life: read-out: T1/2 Mean (converted)
# Method: (§1) Frel of a crushed tablet administered via NGT versus oral liquid formulation was also evaluated. […] The effect of different flush media [D5W and infant formula (Similac®)] and coadministered nutritional supplement (Boost Plus®) on the liquid formulation's bioavailability was assessed.
# (§2) Three open-label, randomized, crossover studies were conducted. […] Serial pharmacokinetics samples were collected. […] Frel was defined as the ratio of AUCinf.
# (§3) Key exclusion criteria included: (i) any history or evidence of abnormal bleeding or coagulation disorders, intracranial hemorrhage, or abnormal bleeding; (ii) any gastrointestinal surgery that could impact upon the absorption of study drug; and (iii) current or recent (within 3 months) gastrointestinal disease including, but not limited to dyspepsia, gastrointestinal ulcers, esophageal or gastric varices, or hemorrhoids.
# [2] = Safety assessments in the studies (adverse events, vital signs, ECGs, laboratory tests); details: healthy subjects in the studies, 5 or 10 mg single doses
# Description: Safety assessments were made based on adverse event reports and the results of vital sign measurements, ECGs, physical examinations, and clinical laboratory tests.
# [3] = Study 3: open-label 3-way crossover, liquid formulation oral vs NGT with Boost Plus vs crushed tablet via NGT; details: for half-life / AUC(0-t) / AUC(0-inf) / Tmax: human, plasma, 5 mg; for Tmax: read-out: Tmax Median
# Method: The apixaban liquid formulation was administered orally (PO), via nasogastric tube (NGT) with different flush media, or with an enteral meal (BOOST Plus®). Frel of a crushed tablet administered via NGT versus oral liquid formulation was also evaluated. […] The effect of different flush media [D5W and infant formula (Similac®)] and coadministered nutritional supplement (Boost Plus®) on the liquid formulation's bioavailability was assessed.
# as §2, §3
# [4] = Study 2: open-label 3-way crossover, liquid formulation oral vs NGT with D5W or infant formula flush; details: for half-life / Tmax / AUC(0-t) / AUC(0-inf): human, plasma, 5 mg
# Method: as §1, §2, §3
# [5] = Study 1, Treatment A: 2 × 5 mg Phase 3 tablets, oral, healthy subjects
smiles,measurement,setting,value
"COc1ccc(-n2nc(C(N)=O)c3c2C(=O)N(c2ccc(N4CCCCC4=O)cc2)CC3)cc1 [Apixaban, 4,5,6,7-tetrahydro-1-(4-methoxyphenyl)-7-oxo-6-[4-(2-oxo-1-piperidinyl)phenyl]-1H-pyrazolo[3,4-c]pyridine-3-carboxamide]",Cmax Adj.Geo.Mean,"[1]; Study 1, Treatment A: 2 × 5 mg Phase 3 tablets",294 ng/mL
same,Cmax Geo. Mean,[1]; [5],294 ng/mL
same,Tmax Median,[1]; [5],2 h
same,Cmax Adj.Geo.Mean,"[1]; Study 1, Treatment B: 25 mL × 0.4 mg/mL liquid formulation",287 ng/mL
same,Cmax Geo. Mean,"[1]; Study 1, Treatment B: 25 mL × 0.4 mg/mL liquid formulation, oral, healthy subjects",287 ng/mL
same,Tmax,"[1]; 10 mg, Study 1, Treatment B: 25 mL × 0.4 mg/mL liquid formulation, oral, healthy subjects, read-out: Tmax Median",2 h
same,AUC(0-t),"[1]; oral, 10 mg, Study 1, Treatment A: 2 × 5 mg Phase 3 tablets, read-out: AUC(0-T) Adj.Geo.Mean",2670 ng·h/mL
same,AUC(0-inf),"[1]; oral, 10 mg, Study 1, Treatment A: 2 × 5 mg Phase 3 tablets, read-out: AUCinf Adj.Geo.Mean",2710 ng·h/mL
same,AUC(0-t),"[1]; oral, 10 mg, Study 1, Treatment B: 25 mL × 0.4 mg/mL liquid formulation, read-out: AUC(0-T) Adj.Geo.Mean",2780 ng·h/mL
same,AUC(0-inf),"[1]; oral, 10 mg, Study 1, Treatment B: 25 mL × 0.4 mg/mL liquid formulation, read-out: AUCinf Adj.Geo.Mean",2850 ng·h/mL
same,AUC(0-t),"[1]; po, 10 mg, Study 1, Treatment A: 2 × 5 mg Phase 3 tablets, oral, healthy subjects, read-out: AUC(0-T) Geo. Mean",2660 ng·h/mL
same,AUC(0-inf),"[1]; po, 10 mg, Study 1, Treatment A: 2 × 5 mg Phase 3 tablets, oral, healthy subjects, read-out: AUCinf Geo. Mean",2710 ng·h/mL
same,half-life,"[1]; po, 10 mg, Study 1, Treatment A: 2 × 5 mg Phase 3 tablets, oral, healthy subjects",12.3 h
same,AUC(0-t),"[1]; po, 10 mg, Study 1, Treatment B: 25 mL × 0.4 mg/mL liquid formulation, oral, healthy subjects, read-out: AUC(0-T) Geo. Mean",2790 ng·h/mL
same,AUC(0-inf),"[1]; po, 10 mg, Study 1, Treatment B: 25 mL × 0.4 mg/mL liquid formulation, oral, healthy subjects, read-out: AUCinf Geo. Mean",2860 ng·h/mL
same,half-life,"[1]; po, 10 mg, Study 1, Treatment B: 25 mL × 0.4 mg/mL liquid formulation, oral, healthy subjects",13.8 h
same,Tmax,"[1]; summary over all treatments of Studies 1-3 except BOOST Plus, read-out: Tmax median",0.5 to 2 h
same,safety and tolerability,[2],safe and well tolerated
same,Cmax Geo. Mean (% CV),"[3]; Study 3, TRT A: 5 mg oral liquid formulation (0.4 mg/mL × 12.5 mL) administered orally",177 ng/mL
same,Cmax Adj.Geo.Mean,"[3]; Study 3, TRT A: 5 mg oral liquid formulation administered orally",179 ng/mL
same,Frel Geo. Mean,"[3]; Study 3, TRT B (liquid formulation after Boost Plus via NGT) versus oral liquid formulation",0.813
same,Cmax Geo. Mean (% CV),"[3]; Study 3, TRT B: 5 mg oral liquid formulation (0.4 mg/mL × 12.5 mL) after Boost Plus via NGT",121 ng/mL
same,Cmax Adj.Geo.Mean,"[3]; Study 3, TRT B: 5 mg oral liquid formulation after Boost Plus via NGT",122 ng/mL
same,Frel Geo. Mean,"[3]; Study 3, TRT C (crushed tablet via NGT) versus oral liquid formulation",0.951
same,Cmax Adj.Geo.Mean,"[3]; Study 3, TRT C: 5 mg crushed tablet via NGT",158 ng/mL
same,Cmax Geo. Mean (% CV),"[3]; Study 3, TRT C: 5 mg crushed tablet via NGT (suspended in 60 mL D5W)",158 ng/mL
same,Frel,"[3]; Study 3, crushed tablet via NGT versus oral liquid formulation",95%
same,Frel,"[3]; Study 3, liquid formulation with BOOST Plus via NGT versus oral liquid formulation",81%
same,half-life,"[3]; Study 3, between the 3 treatments, read-out: mean T1/2",9.6 to 11.2 h
same,AUC(0-t),"[3]; other: via nasogastric tube (NGT), Study 3, TRT C: 5 mg crushed tablet via NGT (suspended in 60 mL D5W), read-out: AUC(0-T) Geo. Mean (% CV)",1300 ng·h/mL
same,AUC(0-inf),"[3]; other: via nasogastric tube (NGT), Study 3, TRT C: 5 mg crushed tablet via NGT (suspended in 60 mL D5W), read-out: AUCinf Geo. Mean (% CV)",1320 ng·h/mL
same,half-life,"[3]; other: via nasogastric tube (NGT), Study 3, TRT C: 5 mg crushed tablet via NGT (suspended in 60 mL D5W), read-out: T1/2 Mean (converted)",10.4 h
same,Tmax,"[3]; other: via nasogastric tube (NGT), Study 3, TRT C: 5 mg crushed tablet via NGT (suspended in 60 mL D5W)",1 h
same,AUC(0-t),"[3]; other: via nasogastric tube (NGT), Study 3, TRT C: 5 mg crushed tablet via NGT, read-out: AUC(0-T) Adj.Geo.Mean",1300 ng·h/mL
same,AUC(0-inf),"[3]; other: via nasogastric tube (NGT), Study 3, TRT C: 5 mg crushed tablet via NGT, read-out: AUCinf Adj.Geo.Mean",1330 ng·h/mL
same,AUC(0-t),"[3]; po, Study 3, TRT A: 5 mg oral liquid formulation (0.4 mg/mL × 12.5 mL) administered orally, read-out: AUC(0-T) Geo. Mean (% CV)",1350 ng·h/mL
same,AUC(0-inf),"[3]; po, Study 3, TRT A: 5 mg oral liquid formulation (0.4 mg/mL × 12.5 mL) administered orally, read-out: AUCinf Geo. Mean (% CV)",1380 ng·h/mL
same,half-life,"[3]; po, Study 3, TRT A: 5 mg oral liquid formulation (0.4 mg/mL × 12.5 mL) administered orally, read-out: T1/2 Mean (converted)",11.2 h
same,Tmax,"[3]; po, Study 3, TRT A: 5 mg oral liquid formulation (0.4 mg/mL × 12.5 mL) administered orally",1 h
same,AUC(0-t),"[3]; po, Study 3, TRT A: 5 mg oral liquid formulation administered orally, read-out: AUC(0-T) Adj.Geo.Mean",1370 ng·h/mL
same,AUC(0-inf),"[3]; po, Study 3, TRT A: 5 mg oral liquid formulation administered orally, read-out: AUCinf Adj.Geo.Mean",1400 ng·h/mL
same,AUC(0-t),"[3]; po, Study 3, TRT B: 5 mg oral liquid formulation (0.4 mg/mL × 12.5 mL) after Boost Plus via NGT, read-out: AUC(0-T) Geo. Mean (% CV)",1100 ng·h/mL
same,AUC(0-inf),"[3]; po, Study 3, TRT B: 5 mg oral liquid formulation (0.4 mg/mL × 12.5 mL) after Boost Plus via NGT, read-out: AUCinf Geo. Mean (% CV)",1120 ng·h/mL
same,half-life,"[3]; po, Study 3, TRT B: 5 mg oral liquid formulation (0.4 mg/mL × 12.5 mL) after Boost Plus via NGT, read-out: T1/2 Mean (converted)",9.56 h
same,Tmax,"[3]; po, Study 3, TRT B: 5 mg oral liquid formulation (0.4 mg/mL × 12.5 mL) after Boost Plus via NGT",3 h
same,AUC(0-t),"[3]; po, Study 3, TRT B: 5 mg oral liquid formulation after Boost Plus via NGT, read-out: AUC(0-T) Adj.Geo.Mean",1110 ng·h/mL
same,AUC(0-inf),"[3]; po, Study 3, TRT B: 5 mg oral liquid formulation after Boost Plus via NGT, read-out: AUCinf Adj.Geo.Mean",1140 ng·h/mL
same,Cmax Geo. Mean,"[4]; Study 2, Treatment A: 5 mg (12.5 mL) liquid formulation by mouth via oral syringe",189 ng/mL
same,Cmax Adj.Geo.Mean,"[4]; Study 2, Treatment A: liquid formulation by mouth",191 ng/mL
same,Cmax Adj.Geo.Mean,"[4]; Study 2, Treatment B: liquid formulation via NGT, D5W flush",182 ng/mL
same,Frel Geo. Mean,"[4]; Study 2, Treatment C (NGT, infant formula flush) versus oral liquid formulation",0.922
same,Cmax Geo. Mean,"[4]; Study 2, Treatment C: 5 mg (12.5 mL) liquid formulation via NGT followed by 60 mL of infant formula via NGT",153 ng/mL
same,Cmax Adj.Geo.Mean,"[4]; Study 2, Treatment C: liquid formulation via NGT, infant formula flush",154 ng/mL
same,Frel,"[4]; Study 2, liquid formulation via NGT flushed with 60 mL infant formula versus oral liquid formulation",92.2% and 92%
same,half-life,"[4]; Study 2, across the 3 treatments, read-out: mean T1/2 (converted)",~10.5 h
same,Tmax,"[4]; Study 2, across the 3 treatments, read-out: median Tmax",0.5 to 1 h
same,AUC(0-t),"[4]; oral, Study 2, Treatment A: liquid formulation by mouth, read-out: AUC(0-T) Adj.Geo.Mean",1270 ng·h/mL
same,AUC(0-inf),"[4]; oral, Study 2, Treatment A: liquid formulation by mouth, read-out: AUCinf Adj.Geo.Mean",1290 ng·h/mL
same,AUC(0-t),"[4]; other: via nasogastric tube (NGT), Study 2, Treatment B: liquid formulation via NGT, D5W flush, read-out: AUC(0-T) Adj.Geo.Mean",1230 ng·h/mL
same,AUC(0-inf),"[4]; other: via nasogastric tube (NGT), Study 2, Treatment B: liquid formulation via NGT, D5W flush, read-out: AUCinf Adj.Geo.Mean",1250 ng·h/mL
same,AUC(0-t),"[4]; other: via nasogastric tube (NGT), Study 2, Treatment C: liquid formulation via NGT, infant formula flush, read-out: AUC(0-T) Adj.Geo.Mean",1170 ng·h/mL
same,AUC(0-inf),"[4]; other: via nasogastric tube (NGT), Study 2, Treatment C: liquid formulation via NGT, infant formula flush, read-out: AUCinf Adj.Geo.Mean",1190 ng·h/mL
same,AUC(0-t),"[4]; po, Study 2, Treatment A: 5 mg (12.5 mL) liquid formulation by mouth via oral syringe, read-out: AUC(0-T) Geo. Mean",1260 ng·h/mL
same,AUC(0-inf),"[4]; po, Study 2, Treatment A: 5 mg (12.5 mL) liquid formulation by mouth via oral syringe, read-out: AUCinf Geo. Mean",1280 ng·h/mL
same,half-life,"[4]; po, Study 2, Treatment A: 5 mg (12.5 mL) liquid formulation by mouth via oral syringe, read-out: T1/2 Mean (converted)",10.5 h
same,Tmax,"[4]; po, Study 2, Treatment A: 5 mg (12.5 mL) liquid formulation by mouth via oral syringe, read-out: Tmax Median",0.517 h
same,AUC(0-t),"[4]; po, Study 2, Treatment B: 5 mg (12.5 mL) liquid formulation via NGT followed by 60 mL of D5W via NGT, read-out: AUC(0-T) Geo. Mean",1210 ng·h/mL
same,AUC(0-inf),"[4]; po, Study 2, Treatment B: 5 mg (12.5 mL) liquid formulation via NGT followed by 60 mL of D5W via NGT, read-out: AUCinf Geo. Mean",1240 ng·h/mL
same,half-life,"[4]; po, Study 2, Treatment B: 5 mg (12.5 mL) liquid formulation via NGT followed by 60 mL of D5W via NGT, read-out: T1/2 Mean (converted)",10.4 h
same,Tmax,"[4]; po, Study 2, Treatment B: 5 mg (12.5 mL) liquid formulation via NGT followed by 60 mL of D5W via NGT, read-out: Tmax Median",1 h
same,AUC(0-t),"[4]; po, Study 2, Treatment C: 5 mg (12.5 mL) liquid formulation via NGT followed by 60 mL of infant formula via NGT, read-out: AUC(0-T) Geo. Mean",1150 ng·h/mL
same,AUC(0-inf),"[4]; po, Study 2, Treatment C: 5 mg (12.5 mL) liquid formulation via NGT followed by 60 mL of infant formula via NGT, read-out: AUCinf Geo. Mean",1180 ng·h/mL
same,half-life,"[4]; po, Study 2, Treatment C: 5 mg (12.5 mL) liquid formulation via NGT followed by 60 mL of infant formula via NGT, read-out: T1/2 Mean (converted)",10.6 h
same,Tmax,"[4]; po, Study 2, Treatment C: 5 mg (12.5 mL) liquid formulation via NGT followed by 60 mL of infant formula via NGT, read-out: Tmax Median",1 h
